Assay results taken from patent US11608328B2, “Chemical probes to identify anti-mycobacterial MmpL3 inhibitors” (Creighton University, priority 2019, dated 2023).
Values after ≈ are worked out from the molar mass of the structure shown. Values joined by “and” are separate entries in the source; they are usually repeats but may differ in a detail not shown here. Equal values may be shown once. “Also recorded” adds a separate entry of the source. Read-outs that look alike come from different tables or passages of the source. Marks after values point to notes of the source that are not given here.

How the values were obtained:
Mtb [1] = conditions: reported by Brown et al., Bioorg. Med. Chem. 2011; cited from earlier work
[2] = BLI assay buffer
[3] = test system: MsmgΔmmpL3 expressing mmpL3tb Q372R; type: cell-based, Mycobacterium smegmatis
[4] = test system: MsmgΔmmpL3 expressing mmpL3tb G253R; type: cell-based, Mycobacterium smegmatis
[5] = test system: MsmgΔmmpL3 expressing mmpL3tb S591W; type: cell-based, Mycobacterium smegmatis
purified MmpL3tb protein = purified MmpL3tb protein (Mycobacterium tuberculosis, UniProt P9WJV5); assay: Surface Plasmon Resonance binding to immobilized MmpL3tb; conditions: for ka2 / kd1 / kd2 / ka1: SPR global fit; for ka1: HEPES-TX buffer with 5% DMSO; for Model (best-fit kinetic model): SPR sensorgrams fit globally; for Kd: equilibrium dissociation constant calculated from the rate constants; for SPR binding signal: in words
[6] = test system: MsmgΔmmpL3 expressing mmpL3tb F644Y; type: cell-based, Mycobacterium smegmatis
[7] = test system: MsmgΔmmpL3 expressing mmpL3tb T311I; type: cell-based, Mycobacterium smegmatis
[8] = test system: MsmgΔmmpL3 expressing mmpL3tb S288T; type: cell-based, Mycobacterium smegmatis
[9] = test system: transmembrane electrochemical proton gradient (ΔpH) of intact Mtb H37Rv mc^26206 cells; assay: Electrochemical proton gradient measurement with CMFDA in intact cells; type: cell-based, Mycobacterium tuberculosis
[10] = test system: MsmgΔmmpL3 expressing mmpL3tb F644C; type: cell-based, Mycobacterium smegmatis
[11] = test system: MsmgΔmmpL3 expressing mmpL3tb S591I; type: cell-based, Mycobacterium smegmatis
[12] = test system: MsmgΔmmpL3 expressing mmpL3tb L567P; type: cell-based, Mycobacterium smegmatis
[13] = test system: MsmgΔmmpL3 expressing mmpL3tb S591G; type: cell-based, Mycobacterium smegmatis
[14] = test system: MsmgΔmmpL3 expressing mmpL3tb F644C/I/L; type: cell-based, Mycobacterium smegmatis
[15] = test system: MsmgΔmmpL3 expressing mmpL3tb S309C; type: cell-based, Mycobacterium smegmatis
[16] = test system: MsmgΔmmpL3 expressing mmpL3tb V684I; type: cell-based, Mycobacterium smegmatis
[17] = test system: transfer of mycolic acids onto their cell envelope acceptors in MsmgΔmmpL3/pMVGH1-mmpL3tb; type: cell-based; conditions: 3 hours
MmpL3tb (MmpL3^WT) = MmpL3tb (MmpL3^WT) (Mycobacterium tuberculosis, UniProt P9WJV5); type: binding; conditions: 50, 100 and 200 μM
[18] = test system: MsmgΔmmpL3 expressing mmpL3tb V684W; type: cell-based, Mycobacterium smegmatis
Mtb [19] = assay: MIC values against Mtb used for the PMF assays; type: cell-based, Mycobacterium tuberculosis; conditions: against Mtb, FIG. 8 legend, read-out: MIC values
[20] = test system: MsmgΔmmpL3 expressing mmpL3tb V684A; type: cell-based, Mycobacterium smegmatis
[21] = test system: Mtb H37Rv mc^26206 inverted membrane vesicles (IMVs); assay: Succinate-driven proton translocation assay (ACMA) in inverted membrane vesicles; type: biochemical, Mycobacterium tuberculosis; conditions: one and four times MIC against Mtb
Description: (§1) FIG. 19A: The reactions were initiated by adding 5 mM succinate. Upon stabilization of the signal, control compounds (INH, RIF, nigericin), the MmpL3 inhibitors or diluent (water, used for INH, or 0.2% DMSO, used for all other compounds) were added and proton translocation monitored fluorimetrically. MmpL3 inhibitors and controls were used at one and four times their MIC concentrations against Mtb. Shown are the averages and standard deviations (error bars) of triplicate measurements.
(§2) Succinate-driven proton translocation assays with the fluorescent substrate ACMA were conducted as previously described (see e.g., Li et al. J. Med. Chem. 2014, 57: 3126-3139) to determine the effect of MmpL3 inhibitors on the electrochemical proton gradient of Mtb H37Rv mc^26206 and E. coli BL21(DE3) IMVs. IMVs (0.18 mg/mL membrane proteins) were pre-incubated at 37° C. in 10 mM HEPES-KOH pH 7.5, 100 mM KCl, 5 mM MgCl2 containing 2 μM ACMA and the baseline monitored for 10 min with a fluorescence spectrophotometer (Victor X5, PerkinElmer). The reaction was then initiated by adding 5 mM succinate. Upon stabilization of the signal, control compounds (INH, RIF, nigericin), MmpL3 inhibitors, or diluent (0.2% DMSO or water) were added and proton translocation monitored fluorimetrically. The excitation and emission wavelengths were 410 nm and 480 nm, respectively.

[22] = test system: MsmgΔmmpL3 expressing mmpL3tb G253W; type: cell-based, Mycobacterium smegmatis
[23] = test system: transmembrane potential (ΔΨ) of intact Mtb H37Rv mc^26206 cells; assay: Membrane potential measurement with DiOC2(3) in intact cells; type: cell-based, Mycobacterium tuberculosis
E. coli BL21(DE3) IMVs = assay: Succinate-driven proton translocation assay (ACMA) in inverted membrane vesicles; type: biochemical; conditions: 2 μg/mL
Description: as §1, §2

[24] = test system: MsmgΔmmpL3 expressing mmpL3tb LI89A; assay: microbe, parasite or virus in culture; type: cell-based; conditions: Table 2, mutant LI89A
[25] = test system: MsmgΔmmpL3 expressing mmpL3tb L189R; type: cell-based, Mycobacterium smegmatis
[26] = test system: MsmgΔmmpL3 expressing mmpL3tb G253E; type: cell-based, Mycobacterium smegmatis
[27] = test system: MsmgΔmmpL3 expressing wild-type mmpL3tb; assay: microbe, parasite or virus in culture; type: cell-based; conditions: MmpL3 WT
purified MmpL3-GFP = purified MmpL3-GFP (Mycobacterium tuberculosis, UniProt P9WJV5); type: binding; conditions: 2 μM Compound 2 with increasing inhibitor concentrations
[28] = target: T1, MmpL3tb- and MmpL3tb-GFP-coated particles (Mycobacterium tuberculosis, UniProt P9WJV5); type: binding; conditions: 15 min at room temperature; various probe concentrations
T1 construct: His tag; made in house; host or cells: Mycobacterium smegmatis ΔmmpL3 carrying pMVGH1-mmpL3tb or pMVGH1-mmpL3tb-gfp

[29] = test system: MmpL3tb-GFP in MsmgΔmmpL3/pMVGH1-mmpL3tb-GFP cells; type: cell-based; conditions: 2 μM probe, 4 h at 37° C.
[30] = test system: MsmgΔmmpL3 expressing mmpL3tb V684G; type: cell-based, Mycobacterium smegmatis
[31] = target: MmpL3tb in MsmgΔmmpL3/pMVGH1-mmpL3tb cells (Mycobacterium tuberculosis, UniProt P9WJV5); type: cell-based
[32] = Mycolicibacterium smegmatis, Tables 1A-1B, read-out: MIC

Chain of purified MmpL3tb protein (P9WJV5 whole entry): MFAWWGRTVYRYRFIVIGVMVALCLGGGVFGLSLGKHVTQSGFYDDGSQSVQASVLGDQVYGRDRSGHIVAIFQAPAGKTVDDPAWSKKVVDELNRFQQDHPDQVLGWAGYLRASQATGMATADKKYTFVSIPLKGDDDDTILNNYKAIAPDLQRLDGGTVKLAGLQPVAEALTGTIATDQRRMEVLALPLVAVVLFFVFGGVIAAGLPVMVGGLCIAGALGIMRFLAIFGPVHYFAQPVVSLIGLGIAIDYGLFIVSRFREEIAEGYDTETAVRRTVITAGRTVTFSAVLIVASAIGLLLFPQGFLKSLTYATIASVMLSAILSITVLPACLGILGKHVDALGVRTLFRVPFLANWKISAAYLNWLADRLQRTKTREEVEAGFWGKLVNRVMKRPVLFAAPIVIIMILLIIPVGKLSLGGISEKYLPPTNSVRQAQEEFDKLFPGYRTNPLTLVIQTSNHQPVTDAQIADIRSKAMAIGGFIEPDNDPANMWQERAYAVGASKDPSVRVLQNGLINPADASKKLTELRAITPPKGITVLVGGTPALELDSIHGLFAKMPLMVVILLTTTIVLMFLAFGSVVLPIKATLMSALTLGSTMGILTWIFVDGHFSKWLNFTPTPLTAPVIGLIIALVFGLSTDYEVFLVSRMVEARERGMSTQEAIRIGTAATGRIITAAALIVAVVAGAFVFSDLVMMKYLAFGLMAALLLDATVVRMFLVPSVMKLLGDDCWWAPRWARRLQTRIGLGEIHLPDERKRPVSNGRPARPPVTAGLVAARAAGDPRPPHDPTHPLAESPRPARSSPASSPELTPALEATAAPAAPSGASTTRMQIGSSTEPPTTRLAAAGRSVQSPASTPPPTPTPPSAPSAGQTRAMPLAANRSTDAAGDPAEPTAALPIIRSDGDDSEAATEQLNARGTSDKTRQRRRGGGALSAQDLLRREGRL
Chain of purified MmpL3-GFP (P9WJV5 whole entry): as above
Chain of MmpL3tb (MmpL3^WT) (P9WJV5 whole entry): as above
T1 sequence (P9WJV5 whole entry): as above
Chain of MmpL3tb in MsmgΔmmpL3/pMVGH1-mmpL3tb cells (P9WJV5 whole entry, looked up, stated change not applied): as the sequence (P9WJV5 whole entry) above

## COC(=O)c1ccc(NC(=O)NC23CC4CC(CC(C4)C2)C3)cc1O [AU, methyl 1-(1-adamantyl)-3-(4-aminosalicylate)urea]
Mtb [1]
  Mtb MIC value: 0.4 µg/mL

## Cc1c(CN2CCN(C)CC2)cc(-c2ccc(Cl)cc2)n1-c1ccc(Cl)cc1 [BM212]
[2]
  solubility limit in 5% DMSO: 50 µM (≈ 20.7 µg/mL)
[3]
  MIC: 12.5 µg/mL (≈ 30.2 µM)
[4]
  MIC: 8 µg/mL (≈ 19.3 µM)
[5]
  MIC: 4^c μg/mL
Purified MmpL3tb protein
  ka2: 0.005 1/RU*s
  kd1: 1.67 s⁻¹
  kd2: 0.0222 s⁻¹
  ka1: 1054.8 M⁻¹ s⁻¹
  Model (best-fit kinetic model): Two-state reaction
Purified MmpL3tb protein; read-out: KD1
  Kd: 1290 µM
[6]
  MIC: 8 µg/mL (≈ 19.3 µM)
[7]
  MIC: 12.5 µg/mL (≈ 30.2 µM)
[8]
  MIC: 25.0^b μg/mL
[9]
  effect on electrochemical proton gradient (ΔpH): collapsed ΔpH
[10]
  MIC: 3.13 µg/mL (≈ 7.55 µM)
[11]
  MIC: 25.0^b μg/mL and 16 μg/mL
[12]
  MIC: 12.5 µg/mL (≈ 30.2 µM)
[13]
  MIC: 1^c μg/mL
[14]
  MIC: 4 µg/mL (≈ 9.65 µM)
[15]
  MIC: 12.5 µg/mL (≈ 30.2 µM)
[16]
  MIC: 2 µg/mL (≈ 4.83 µM)
[17]
  inhibition of transfer of mycolic acids to cell envelope acceptors: actually targeted MmpL3tb in the Msmg recombinant system
MmpL3tb (MmpL3^WT)
  BLI binding signal: only yielded weak binding signals
[18]
  MIC: 4 µg/mL (≈ 9.65 µM)
Mtb [19]
  MIC: 3.76 µM (≈ 1.56 µg/mL)
[20]
  MIC: 6.25 µg/mL and 4 µg/mL
[21]
  effect on ΔpH of Mtb IMVs: increase of fluorescence intensity indicative of ΔpH collapse
[22]
  MIC: 8 µg/mL (≈ 19.3 µM)
[23]
  effect on membrane potential (ΔΨ): only showed an effect on ΔΨ at the highest concentration tested (8×MIC)
E. coli BL21(DE3) IMVs
  effect on ΔpH of E. coli IMVs: showed no such activity
[24]
  MIC: 8 µg/mL (≈ 19.3 µM)
[25]
  MIC: 12.5 µg/mL and 8 µg/mL
[26]
  MIC: 12.5 µg/mL and 8 µg/mL
[27]; Table 2
  MIC: 4 µg/mL (≈ 9.65 µM)
[27]; Tables 1A-1B
  MIC: 6.25 µg/mL (≈ 15.1 µM)
Purified MmpL3-GFP
  displacement of Compound 2 from purified MmpL3tb: clear concentration-dependent displacement

## C[C@@H]1C(NC(=O)c2cc3cc(OCc4cn(CCCCCCNC(=O)c5ccc(-c6c7ccc(=[N+](C)C)cc-7oc7cc(N(C)C)ccc67)c(C(=O)O)c5)nn4)ccc3[nH]2)C[C@H]2C[C@@H]1C2(C)C (some centres unmarked) [Compound 2]
[3]
  MIC: 16^b μg/mL
Purified MmpL3tb protein
  ka2: 540.582 1/RU*s
  kd1: 0.02 s⁻¹
  kd2: 0.1556 s⁻¹
  ka1: 36380.1 M⁻¹ s⁻¹
  Model (best-fit kinetic model): Heterogeneous ligand
  SPR binding signal: strong SPR signals
Purified MmpL3tb protein; read-out: KD1
  Kd: 0.5 µM
Purified MmpL3tb protein; read-out: KD2
  Kd: 288 µM
[7]
  MIC: 4 µg/mL
[8]
  MIC: 4 µg/mL
[10]
  MIC: 8 µg/mL
[11]
  MIC: 8 µg/mL
[12]
  MIC: 4 µg/mL
[28]
  probe binding to coated particles (MFI): concentration-dependent binding
[15]
  MIC: 8 µg/mL
[29]
  colocalization with MmpL3tb-GFP: colocalization of the probes with MmpL3tb-GFP
[20]
  MIC: 4 µg/mL
[30]
  MIC: 4 µg/mL
[25]
  MIC: 8 µg/mL
[26]
  MIC: 8 µg/mL
[27]; [32]
  MIC: 4 µg/mL

## NNC(=O)c1ccncc1 [INH, isoniazid]
[31]
  displacement of probe (Compound 1 or Compound 2) in intact cells: not observed
Mtb [19]; Mycobacterium tuberculosis
  MIC: 0.58 µM (≈ 0.0795 µg/mL)
Purified MmpL3-GFP
  displacement of Compound 2 from purified MmpL3tb: No significant displacement

## CC(C)=CCC/C(C)=C/CNCCNC1C2CC3CC(C2)CC1C3 (centres unmarked) [SQ109]
[3]
  MIC: 0.78 µg/mL (≈ 2.36 µM)
[4]
  MIC: 0.31-0.62^c μg/mL
[5]
  MIC: 0.31^c μg/mL
Purified MmpL3tb protein
  ka2: 0.025 1/RU*s
  kd1: 2.32 s⁻¹
  kd2: 0.0436 s⁻¹
  ka1: 1208.2 M⁻¹ s⁻¹
  Model (best-fit kinetic model): Two-state reaction
  SPR binding signal: strong SPR signals
[6]
  MIC: 0.15-0.31^c μg/mL
[7]
  MIC: 0.78 µg/mL (≈ 2.36 µM)
[8]
  MIC: 3.13^a μg/mL
[9]
  effect on electrochemical proton gradient (ΔpH): collapsed ΔpH
[10]
  MIC: 1.56^b μg/mL
[12]
  MIC: 1.56^b μg/mL
[13]
  MIC: 0.31^c μg/mL
[14]
  MIC: 0.62-1.25^ μg/mL
[15]
  MIC: 6.25^a μg/mL
[16]
  MIC: 0.31-0.62^ μg/mL
[17]
  inhibition of transfer of mycolic acids to cell envelope acceptors: actually targeted MmpL3tb in the Msmg recombinant system
MmpL3tb (MmpL3^WT)
  BLI binding signal: consistently bound to MmpL3tb with the strongest signals
[18]
  MIC: 0.07-0.15^d μg/mL
Mtb [19]; Mycobacterium tuberculosis
  MIC: 2.36 µM (≈ 0.78 µg/mL)
[21]
  effect on ΔpH of Mtb IMVs: increase of fluorescence intensity indicative of ΔpH collapse
[22]
  MIC: 0.15-0.3^d μg/mL
[23]
  effect on membrane potential (ΔΨ): dissipated ΔΨ in a concentration-dependent manner
E. coli BL21(DE3) IMVs
  effect on ΔpH of E. coli IMVs: collapse the ΔpH of E. coli IMVs; also recorded: similarly dissipated the pH gradient of IMVs prepared from E. coli
[24]; Mycolicibacterium smegmatis, read-out: MIC
  MIC: 0.31 to 0.62 µg/mL (≈ 0.938 to 1.88 µM)
[30]
  MIC: 0.39 μg/mL and 0.31-0.62^ μg/mL
[26]
  MIC: 1.25^b μg/mL and 1.25 μg/mL
[27]; Mycolicibacterium smegmatis, Table 2, read-out: MIC
  MIC: 0.31 µg/mL (≈ 0.938 µM)
[27]; [32]
  MIC: 0.39 µg/mL (≈ 1.18 µM)
Purified MmpL3-GFP
  displacement of Compound 2 from purified MmpL3tb: not significant
